Experimental data from patent US12351596B2 (priority 2019, dated 2025).
Entries after “also recorded” stand apart in the source; their conditions may differ.

Test system: antibodies present in serum samples from melioidosis patients
Type: binding, human

Row | Compound | ability to detect antibodies present in serum samples from melioidosis patients | ability to detect the antibodies compared with other antigens
1 | CO[C@H]1[C@@H](OC(C)=O)[C@H](O[C@@H]2[C@@H](O)[C@H](O[C@@H]3[C@H](O)[C@H](C)O[C@@H](O[C@@H]4[C@@H](O)[C@H](OCCCCCN)O[C@H](CO)[C@H]4O)[C@@H]3OC(C)=O)O[C@H](CO)[C@H]2O)O[C@@H](C)[C@H]1OC(C)=O.Cl [tetrasaccharide 8, (5-Amino-1-pentyl) 2,4-di-O-acetyl-6-deoxy-3-O-methyl-α-L-talopyranosyl-(1→3)-β-D-glucopyranosyl-(1→3)-2-O-acetyl-6-deoxy-α-L-talopyranosyl-(1→3)-β-D-glucopyranoside hydrochloride] | exquisite mimics of the whole Bp and Bm LPS OAgs; also recorded: able to detect antibodies present in serum samples from melioidosis patients | 
2 | (5-Amino-1-pentyl) 2-O-acetyl-6-deoxy-3-O-methyl-α-L-talopyranosyl-(1→3)-β-D-glucopyranosyl-(1→3)-2-O-acetyl-6-deoxy-α-L-talopyranosyl-(1→3)-δ-D-glucopyranoside hydrochloride [tetrasaccharide 9] | exquisite mimics of the whole Bp and Bm LPS OAgs; also recorded: able to detect antibodies present in serum samples from melioidosis patients | as effective as tetrasaccharide 8
